# Source: patent US20200360331A1, “COMPOSITIONS COMPRISING 15-HEPE AND/OR 15-HETrE AND METHODS OF TREATING OR PREVENTING CARDIOMETABOLIC DISEASE, METABOLIC SYNDROME, AND/OR RELATED DISEASES” (Afimmune Limited, priority 2019, published 2020)
# Entries after “also recorded” stand apart in the source; their conditions may differ.
# Tests used:
# BDL-operated mice = assay: BDL study: Sirius red staining of liver sections, fibrosis area; type: in vivo, C57BL/6J mice
# Protocol: BDL Surgery: On Day 0 of the study, BDL surgery was performed under pentobarbital (Kyoritsu Seiyaku, Japan) anesthesia. The mouse's hair was first shaved, the abdominal cavity cut open, and the common bile duct was ligated twice with 7-0 surgical silk. The mouse's peritoneum and the skin were closed with sutures, and the mice were transferred to a clean cage (e.g., resting cage) until recovered from anesthesia. Sham operated mice had their common bile duct exposed but not ligated.
# […]: To visualize collagen deposition, Bouin's fixed liver sections were stained using picro-Sirius red solution (Waldeck, Germany). For quantitative analysis of fibrosis area, bright field images of Sirius red-stained sections were captured using a digital camera (DFC295, Leica, Germany) at 100-fold magnification, and the positive areas in 5 fields/section were measured using ImageJ software (National Institute of Health, USA).
# TGF-β = assay: BDL study: quantitative RT-PCR of liver, TGF-β; type: in vivo, C57BL/6J mice; settings: BDL mice liver
# Protocol: Quantitative RT-PCR: Total ribonucleic acid (RNA) was extracted from liver samples using RNAiso (Takara Bio, Japan) according to the manufacturer's instructions. One μg of RNA was reverse-transcribed using a reaction mixture containing 4.4 mM magnesium chloride (MgCl2) (F. Hoffmann-La Roche, Switzerland), 40 U RNase inhibitor (Toyobo, Japan), 0.5 mM dNTP (Promega, USA), 6.28 μM random hexamer (Promega), 5× first strand buffer (Promega), 10 mM dithiothreitol (Invitrogen, USA) and 200 U MMLV-RT (Invitrogen) in a final volume of 20 μL. The reaction was carried out for 1 hour at 37° C., followed by 5 minutes at 99° C. Real-time PCR was performed using real-time PCR DICE and TB Green™ Premix Ex Taq™ II (Takara Bio). To calculate the relative mRNA expression level, the expression of each gene (α-SMA, TIMP-1, TGF-β and Collagen Type 1) was normalized to that of reference gene 36B4 (gene symbol: Rplp0). Information regarding the PCR-primer sets and the plate layout are described in Tables 8 and 9.
# [1] = tested on: TβR-I (type I TGF-β receptor); assay: Sucrose density gradient analysis in Mv1Lu cells, TβR-I; type: cell-based, mink
# Protocol: (§1) Sucrose gradient ultracentrifugation and confocal microscopy were used to identify 15-HEPE induced microdomain translocation of TGF-β receptors by sucrose. Sucrose density gradient analysis of TGF-β receptors was conducted in the plasma membranes of Mv1Lu cells (mink lung epithelial cell) treated with 100 μM of 15-HEPE and an equal volume of DMSO (dimethyl sulfoxide) at 37° C. for 0, 1, 4, and 24 hours, and the cell lysates from these treated cells were subjected to sucrose density gradient ultracentrifugation. The sucrose gradient fractions were then analyzed by Western blot analysis using anti-TβR-I (type I TGF-β receptor), anti-TβR-II (type II TGF-β receptor), anti-TβR-III (type III TGF-β receptor, betaglycan), anti-EGFR (epidermal growth factor receptor), and anti-caveolin-1 antibodies. The lipid raft/caveolae, and non-lipid raft microdomain localization of TβR-I, TβR-II, TβR-III, EGFR and caveolin-1 in the plasma membrane of untreated cells or cells treated with 15-HEPE were assessed to determine the effects of 15-HEPE on the membrane microdomain localization of the TGF-β receptors. […]
# [2] = tested on: TβR-II (type II TGF-β receptor); assay: Sucrose density gradient analysis in Mv1Lu cells, TβR-II; type: cell-based, mink
# Protocol: Sucrose gradient ultracentrifugation and confocal microscopy were used to identify 15-HEPE induced microdomain translocation of TGF-β receptors by sucrose. Sucrose density gradient analysis of TGF-β receptors was conducted in the plasma membranes of Mv1Lu cells (mink lung epithelial cell) treated with 100 μM of 15-HEPE and an equal volume of DMSO (dimethyl sulfoxide) at 37° C. for 0, 1, 4, and 24 hours, and the cell lysates from these treated cells were subjected to sucrose density gradient ultracentrifugation. The sucrose gradient fractions were then analyzed by Western blot analysis using anti-TβR-I (type I TGF-β receptor), anti-TβR-II (type II TGF-β receptor), anti-TβR-III (type III TGF-β receptor, betaglycan), anti-EGFR (epidermal growth factor receptor), and anti-caveolin-1 antibodies. The lipid raft/caveolae, and non-lipid raft microdomain localization of TβR-I, TβR-II, TβR-III, EGFR and caveolin-1 in the plasma membrane of untreated cells or cells treated with 15-HEPE were assessed to determine the effects of 15-HEPE on the membrane microdomain localization of the TGF-β receptors.
# A 15-HEPE sucrose density gradient analysis of TGF-β receptors was conducted in the plasma membranes of mink lung epithelial cell (Mv1 Lu) cells treated with 100 μM of 15-HEPE and an equal volume of dimethyl sulfoxide (DMSO) at 37° C. for 0, 1, 4, and 24 hours, and the cell lysates from these treated cells were subjected to sucrose density gradient ultracentrifugation. The sucrose gradient fractions were then analyzed by Western blot analysis using anti-TβR-I (type I TGF-β receptor—FIG. 18C), anti-TβR-II (type II TGF-β receptor—FIG. 18D), anti-TβR-III (type III TGF-β receptor, betaglycan—FIG. 18E), anti-EGFR (epidermal growth factor receptor—FIG. 18F), and anti-caveolin-1 antibodies (FIG. 18G). Fractions 4 to 5 contained lipid rafts/caveolae whereas fractions 7-10 were non-lipid raft fractions. […] Stars (★) indicate 15-HEPE increased abundance of TβR-I (24 hours) in the fraction in comparison with that of the control and shorter treatment durations (FIG. 18C). […] The triangles (▾) indicate translocation and decreased abundance of TβR-II in the fraction in comparison with control cells (FIG. 18D).
# [3] = tested on: TβR-III (type III TGF-β receptor, betaglycan); assay: Sucrose density gradient analysis in Mv1Lu cells, TβR-III; type: cell-based, mink; settings: 100 μM, 0, 1, 4 and 24 hours
# Protocol: as §1
# NAFLD patients = assay: Phase IIa NAFLD study: metabolic parameters and insulin resistance; type: in vivo, human
# Protocol: The study was planned to include 96 evaluable patients with 32 patients randomized per treatment group.
# HOMA-IR/Adipo-IR: HOMA-IR/Adipo-IR levels are a method of measuring insulin resistance. HOMA-IR is calculated by multiplying fasting plasma insulin (FPI) by fasting plasma glucose (FPG), then dividing by the constant 405. Adipo-IR is calculated by multiplying fasting non-esterified fatty acids (NEFA)×fasting insulin. Blood samples were taken to assess HOMA-IR and Adipo-IR at Visit 2/Baseline, Visit 3/Week 2, Visit 4/Week 4, Visit 6/Week 8, Visit 8/Week 12, Visit 10/Week16 and Follow up Visit 11/Week 20. All subjects were required to have been fasted for a minimum of 8 hours prior to blood sampling. If subjects had not fasted for a minimum of 8 hours, the duration of fasting time was recorded, and subjects encouraged to fast appropriately for the next clinical visit.
# Exploratory analysis: The exploratory analysis included analysis of lipid and metabolic parameters including total cholesterol, triglycerides, very low-density lipoprotein cholesterol (VLDL-C), low density lipoprotein cholesterol (LDL-C), high density lipoprotein cholesterol (HDL-C), non-high-density lipoprotein cholesterol (non-HDL-C), remnant-like particle cholesterol (RLP-C), fasting glucose, insulin, free fatty acids and hemoglobin A1C (HbA1C). Additional exploratory analysis included high throughput lipidomics and proteomics.
# [4] = NAFLD patients, 1 g or 2 g per day
# [5] = baseline to Week 16, 1 g or 2 g per day vs placebo
structure (smiles),measurement,setting,value
"CC/C=C\CC(O)/C=C/C=C\C/C=C\C/C=C\CCCC(=O)O (centres unmarked) [DS102, 15-hydroxy-eicosa-5Z,8Z,11Z,13E,17Z-pentaenoic acid]",fibrosis area compared with the Vehicle group,"BDL-operated mice; BDL mice liver, 500 mg/kg",tended to decrease; also recorded: trend approaching significance
same,fibrosis area compared with the Vehicle group,"BDL-operated mice; BDL mice, liver, 50 mg/kg",no significant difference
same,Sirius red-positive area,"BDL-operated mice; BDL mice, liver, 50 mg/kg PO QD Day 0-13, Day 14",1.70 ± 0.63%
same,fibrosis area compared with the Vehicle group,"BDL-operated mice; BDL mice, liver, 250 mg/kg",significant decrease
same,Sirius red-positive area,"BDL-operated mice; BDL mice, liver, 250 mg/kg PO QD Day 0-13, Day 14",1.06 ± 0.48%
same,Sirius red-positive area,"BDL-operated mice; BDL mice, liver, 500 mg/kg PO QD Day 0-13, Day 14",1.42 ± 0.60%
same,TGF-β mRNA expression level compared with the Vehicle group,TGF-β; 500 mg/kg,significant decrease
same,TGF-β mRNA expression level vs Vehicle group,TGF-β; DS102 treatment groups,no significant differences
same,TGF-β gene expression,"TGF-β; relative mRNA normalized to 36B4, 50 mg/kg PO QD Day 0-13",1.48 ± 0.48
same,TGF-β gene expression,"TGF-β; relative mRNA normalized to 36B4, 250 mg/kg PO QD Day 0-13",1.50 ± 0.44
same,TGF-β gene expression,"TGF-β; relative mRNA normalized to 36B4, 500 mg/kg PO QD Day 0-13",1.00 ± 0.23
same,abundance of TβR-I proteins,"[1]; 100 μM, 0, 1, 4 and 24 hours",did not affect the abundance of TβR-I proteins
same,translocation of TβR-I to lipid-raft,"[1]; 100 μM, 24 hours",induced translocation of TβR-I to lipid-raft
same,TβR-II translocation,"[2]; Mv1Lu cells, 100 μM, 1 to 4 hours",induced TβR-II translocation
same,TβR-II degradation,"[2]; Mv1Lu cells, 100 μM, 24 hours",induce degradation
same,translocation and degradation of type II TGF-β receptors,"[2]; summary, free acid or ethyl ester form",induced translocation and degradation of type II TGF-β receptors
same,localization and abundance of TβR-III,[3],did not change the localization and abundance
same,insulin sensitivity and glycemic control,NAFLD patients; [4],improvement
same,markers of metabolic overload,NAFLD patients; [4],statistically significant reduction
same,insulin resistance indices (HOMA-IR and adipo-IR levels),"NAFLD patients; Week 16, 1 g or 2 g per day vs placebo",reduction in HOMA-IR and adipo-IR levels
same,insulin resistance indices (HOMA-IR and adipo-IR levels),"NAFLD patients; Week 16, 2 g, Per Protocol Set (PPS)",significant improvements
same,"HbA1c levels, glycemic control",NAFLD patients; [5],clinically significant improvements
same,"insulin, glucose, and free fatty acid levels",NAFLD patients; [5],reduction
